Laboratory results reported in patent US4465673A, “Pentagalloylglucose antiviral composition” (Tanaka; Yasuo, priority 1983, dated 1984).

Columns and labels:
[1] = test system: herpes simplex virus; test: Antiviral activity against herpes simplex virus in FL cells (multinucleated giant cell formation); assay type: cell-based; details: FL cell monolayers, sample added 1 h after virus, 36° C., 5% carbon dioxide, 24 hours incubation
Procedure: Antiviral activity of 1,2,3,4,6-pentagalloylglucose against herpes simplex virus was assayed. Procedure:
Monolayers were prepared from dispersed FL cells in Petri dishes of diameter 35 mm, 24 hours prior to the assay. On carrying out the assay, the medium in each dish was poured off and each dish received 1 ml of medium containing herpes simplex virus. The dishes were incubated at 36° C. in a humidified atmosphere containing 5% of gaseous carbon dioxide. After an hour, each dish further received 1 ml of medium and 20-200 μl of an aqueous 1,2,3,4,6-pentagalloylglucose solution. Incubation was continued for 24 hours and then all the dishes were inspected for multinucleated giant cell. Antiviral activity was defined as the minimum concentration of sample at which no multinucleated giant cell appeared.

[2] = Acute toxicity in rats; assay type: in vivo; details: in a usual manner
Procedure: Acute toxicity of 1,2,3,4 6-pentagalloylglucose was assayed using rats in a usual manner.

Molecule | Antiviral activity (minimum concentration of sample at which no multinucleated giant cell appeared) [1] [µg/mL] | Acute toxicity [2] | minimal effective concentration ([1]; read-out: Antiviral activity (minimum concentration of sample at which no multinucleated giant cell appeared)) [µg/mL]
1,2,3,4,6-pentagalloylglucose [Product of Example 1] | 26 |  | 
O=C(OCC1OC(OC(=O)c2cc(O)c(O)c(O)c2)C(OC(=O)c2cc(O)c(O)c(O)c2)C(OC(=O)c2cc(O)c(O)c(O)c2)C1OC(=O)c1cc(O)c(O)c(O)c1)c1cc(O)c(O)c(O)c1 (stereo not drawn) [1,2,3,4,6-pentagalloylglucose] |  | extremely low | 25
